Among the data in ChEMBL document CHEMBL1759968, “Synthesis and biological evaluation of unsaturated keto and exomethylene D-arabinopyranonucleoside analogs: novel 5-fluorouracil analogs that target thymidylate synthase” (Eur J Med Chem, 2011) are Activity and IC50 values, retold here.

For one assay, the system named is Punta Toro virus. As to the kind of experiment: Antiviral activity against Punta Toro virus infected in Vero cells assessed as inhibition of virus-induced cytopathic effect. It counts as functional, organism-based. In general terms: Protection from cytopathic effect is a common read-out in antiviral testing.
The test system of assay [1] is HeLa. As to the kind of experiment: Cytostatic activity against human HeLa cells after 3 days by coulter counting analysis. It counts as functional, cell-based. The note with it: 72 h.
The test system of a further assay is Vaccinia virus. As to the kind of experiment: Antiviral activity against Vaccinia virus infected in HEL cells assessed as inhibition of virus-induced cytopathic effect. It counts as functional, organism-based. The note with it: Orthopoxvirus vaccinia.
For the next assay, the system named is FM3A. As to the kind of experiment: Cytostatic activity against mouse FM3A cells after 2 days by coulter counting analysis. Type of assay: functional, cell-based. The note with it: 48 h.
Assay [2] relates to Mammalian orthoreovirus 1. Description: Antiviral activity against Reovirus 1 infected in Vero cells assessed as inhibition of virus-induced cytopathic effect. Type of assay: functional, organism-based.
Assay [3] concerns Coxsackievirus B4. Description: Antiviral activity against Human coxsackievirus B4 infected in HeLa cells assessed as inhibition of virus-induced cytopathic effect. Type of assay: functional, organism-based.
Assay [4] has as its system Vesicular stomatitis virus. As to the kind of experiment: Antiviral activity against Vesicular stomatitis virus infected in HeLa cells assessed as inhibition of virus-induced cytopathic effect. Type of assay: functional, organism-based.
For a further assay, the system named is Human respirovirus 3. As to the kind of experiment: Antiviral activity against Human parainfluenza virus 3 infected in Vero cells assessed as inhibition of virus-induced cytopathic effect. It counts as functional, organism-based.
A further assay has as its system Sindbis virus. As to the kind of experiment: Antiviral activity against Sindbis virus infected in Vero cells assessed as inhibition of virus-induced cytopathic effect. Type of assay: functional, organism-based.
Assay [5] deals with L1210. Description: Cytostatic activity against mouse L1210 cells after 2 days by coulter counting analysis. It counts as functional, cell-based. The note with it: L1210, 48 h.
The subject of assay [6] is Respiratory syncytial virus. Description: Antiviral activity against Respiratory syncytial virus infected in HeLa cells assessed as inhibition of virus-induced cytopathic effect. It counts as functional, organism-based.
The subject of another assay is Human alphaherpesvirus 1. Description: Antiviral activity against Herpes simplex virus type-1 infected in HEL cells assessed as inhibition of virus-induced cytopathic effect. It counts as functional, organism-based.
Assay [7] concerns Coxsackievirus B4. As to the kind of experiment: Antiviral activity against Human coxsackievirus B4 infected in Vero cells assessed as inhibition of virus-induced cytopathic effect. Type of assay: functional, organism-based.
Another assay deals with Human alphaherpesvirus 2. Description: Antiviral activity against Herpes simplex virus type-2 infected in HEL cells assessed as inhibition of virus-induced cytopathic effect. Type of assay: functional, organism-based.
In assay [8] the test system is Vesicular stomatitis virus. As to the kind of experiment: Antiviral activity against Vesicular stomatitis virus infected in HEL cells assessed as inhibition of virus-induced cytopathic effect. It counts as functional, organism-based.
Another assay relates to CCRF-CEM. As to the kind of experiment: Cytostatic activity against human CEM cells after 3 days by coulter counting analysis. It counts as functional, cell-based. The note with it: 72 h.
Assay [9] relates to HeLa. As to the kind of experiment: Cytostatic activity against human HeLa cells in presence of 500 uM uridine. Type of assay: functional, cell-based.
The test system of assay [10] is L1210. Description: Cytostatic activity against mouse L1210 cells in presence of 500 uM uracil. It counts as functional, cell-based.
In assay [11] the test system is HeLa. Description: Cytostatic activity against human HeLa cells in presence of 20 uM thymidine. It counts as functional, cell-based.
Assay [12] relates to HeLa. Description: Cytostatic activity against human HeLa cells in presence of 500 uM uracil. It counts as functional, cell-based.
The subject of assay [13] is L1210. As to the kind of experiment: Cytostatic activity against mouse L1210 cells in presence of 500 uM uridine. Type of assay: functional, cell-based.
The test system of assay [14] is L1210. Description: Cytostatic activity against mouse L1210 cells in presence of 20 uM 2'-deoxyuridine. Type of assay: functional, cell-based.
The test system of assay [15] is HeLa. As to the kind of experiment: Cytostatic activity against human HeLa cells in presence of 20 uM 2'-deoxyuridine. Type of assay: functional, cell-based.
In assay [16] the test system is L1210. As to the kind of experiment: Cytostatic activity against mouse L1210 cells in presence of 20 uM thymidine. Type of assay: functional, cell-based.

Each structure is given as a SMILES string. Active and inactive are the calls of the source. No cut-off for these calls is given here.

The term IC50 denotes the concentration at which inhibition is half-maximal. With `O=C1C=CCO[C@@H]1n1cc(C(F)(F)F)c(O)nc1=O`, the outcome (with Punta Toro virus; with Vaccinia virus; in assay [2]; with Coxsackievirus B4 [3]; in assay [4]; in the assay on Human respirovirus 3) was inactive. Also, the result (in the assay on Sindbis virus; in assay [6]; in the assay on Human alphaherpesvirus 1; with Coxsackievirus B4 [7]; in the assay on Human alphaherpesvirus 2; in assay [8]) was inactive. The IC50 in the assay on HeLa [1] came to 34 µM; with FM3A, 46 µM; in the assay on L1210 [5], 23 µM; in the assay on CCRF-CEM it was 39 µM.

`O=C(Nc1ccn([C@H]2OCC=CC2=O)c(=O)n1)c1ccccc1`: the outcome (with Punta Toro virus; in the assay on Vaccinia virus; in [2]; in the assay with Coxsackievirus B4 [3]; in assay [4]; in the assay on Human respirovirus 3) was inactive. Also, the outcome (in the assay on Sindbis virus; in assay [6]; in the assay with Human alphaherpesvirus 1; with Coxsackievirus B4 [7]; in the assay on Human alphaherpesvirus 2; in [8]) was inactive. For the same molecule, the IC50 came to 72 µM in the assay with HeLa [1], 62 µM with FM3A, 28 µM in the assay on L1210 [5] and 46 µM in the assay with CCRF-CEM.

As for `Cc1cn([C@H]2OCC=CC2=O)c(=O)nc1O`, the outcome (in the assay on Punta Toro virus; in the assay on Vaccinia virus; in [2]; in the assay on Coxsackievirus B4 [3]; in assay [4]; in the assay on Human respirovirus 3) was inactive. The result (in the assay on Sindbis virus; in [6]; in the assay with Human alphaherpesvirus 1; in the assay on Coxsackievirus B4 [7]; in the assay with Human alphaherpesvirus 2; in assay [8]) was inactive. The IC50 in the assay on HeLa [1] was 34 µM; with FM3A it was 77 µM; in the assay with L1210 [5] it was 34 µM; in the assay on CCRF-CEM, 104 µM.

`C=C1C=CCO[C@@H]1n1ccc(O)nc1=O`: the outcome (in the assay with Punta Toro virus; in the assay with Vaccinia virus; in [2]; in the assay with Coxsackievirus B4 [3]; in assay [4]; in the assay on Human respirovirus 3) was inactive. Also, the outcome (in the assay with Sindbis virus; in assay [6]; in the assay on Human alphaherpesvirus 1; in the assay with Coxsackievirus B4 [7]; in the assay on Human alphaherpesvirus 2; in assay [8]) was inactive. For the same molecule, the IC50 in the assay on HeLa [1] is 760 µM; in the assay with FM3A, over 1000 µM; with L1210 [5] it was 549 µM; in the assay with CCRF-CEM, 450 µM.

Turning to `C=C1C=CCO[C@@H]1n1ccc(N)nc1=O`, the result (in the assay on Punta Toro virus; in the assay with Vaccinia virus; in [2]; in the assay with Coxsackievirus B4 [3]; in [4]; in the assay with Human respirovirus 3) was inactive. Moreover, the outcome (in the assay on Sindbis virus; in [6]; with Human alphaherpesvirus 1; with Coxsackievirus B4 [7]; with Human alphaherpesvirus 2; in assay [8]) was inactive. For the same molecule, the IC50 in the assay with HeLa [1] was 990 µM; with FM3A it was at least 1800 µM; in the assay with L1210 [5], 1390 µM; in the assay with CCRF-CEM, 1550 µM.

For the molecule `C=C1C=CCO[C@@H]1n1ccc(NC(=O)c2ccccc2)nc1=O`, the outcome (in the assay on Punta Toro virus; with Vaccinia virus; in [2]; in the assay on Coxsackievirus B4 [3]; in assay [4]; with Human respirovirus 3) was inactive. In addition, the outcome (in the assay on Sindbis virus; in assay [6]; with Human alphaherpesvirus 1; in the assay with Coxsackievirus B4 [7]; with Human alphaherpesvirus 2; in [8]) was inactive. Also, the half-maximal inhibitory concentration (IC50) in the assay with HeLa [1] is 296 µM; with FM3A, 379 µM; with L1210 [5] it was 368 µM; in the assay with CCRF-CEM, 432 µM.

For the molecule `C=C1C=CCO[C@@H]1n1cc(C)c(O)nc1=O`, the result (with Punta Toro virus; in the assay on Vaccinia virus; in [2]; with Coxsackievirus B4 [3]; in assay [4]; in the assay with Human respirovirus 3) was inactive. For the same molecule, the outcome (in the assay on Sindbis virus; in assay [6]; in the assay with Human alphaherpesvirus 1; in the assay with Coxsackievirus B4 [7]; in the assay with Human alphaherpesvirus 2; in assay [8]) was inactive. The concentration for half-maximal inhibition (IC50) was 339 µM in the assay with HeLa [1], at least 900 µM in the assay on FM3A, 486 µM in the assay with L1210 [5] and 504 µM with CCRF-CEM.

As to `C=C1[C@H](O)[C@H](O)CO[C@@H]1n1cc(C)c(O)nc1=O`, the outcome (in the assay on Punta Toro virus; in the assay on Vaccinia virus; in assay [2]; with Coxsackievirus B4 [3]; in [4]; in the assay with Human respirovirus 3) was inactive. The result (in the assay with Sindbis virus; in assay [6]; with Human alphaherpesvirus 1; with Coxsackievirus B4 [7]; in the assay on Human alphaherpesvirus 2; in [8]) was inactive. Besides, the IC50 with HeLa [1] is at least 800 µM; in the assay with FM3A, 775 µM; in the assay with L1210 [5], 610 µM; in the assay with CCRF-CEM, at least 800 µM.

With `C=C1[C@H](O)[C@H](O)CO[C@@H]1n1ccc(O)nc1=O`, the outcome (in the assay with Punta Toro virus; in the assay with Vaccinia virus; in [2]; with Coxsackievirus B4 [3]; in assay [4]; in the assay on Human respirovirus 3) was inactive. Besides, the result (in the assay with Sindbis virus; in assay [6]; in the assay on Human alphaherpesvirus 1; with Coxsackievirus B4 [7]; in the assay with Human alphaherpesvirus 2; in assay [8]) was inactive. For the same molecule, the IC50 was at least 800 µM in the assay with HeLa [1], over 800 µM in the assay on FM3A, over 800 µM with L1210 [5] and over 800 µM with CCRF-CEM.

Take `O=C1C=CCO[C@@H]1n1ccc(O)nc1=O`: the outcome (in the assay with Punta Toro virus; in the assay with Vaccinia virus; in assay [2]; in the assay on Coxsackievirus B4 [3]; in [4]; in the assay on Human respirovirus 3) was inactive. Moreover, the result (with Sindbis virus; in assay [6]; in the assay with Human alphaherpesvirus 1; with Coxsackievirus B4 [7]; with Human alphaherpesvirus 2; in assay [8]) was inactive. The IC50 in the assay on HeLa [1] turned out to be 42 µM; in the assay on FM3A, 121 µM; in the assay on L1210 [5], 92 µM; in the assay on CCRF-CEM, 82 µM.

Turning to `O=c1[nH]c(=O)n([C@@H]2O[C@H](CO)[C@@H](O)[C@H]2O)cc1F` [5-FLUOROURIDINE], the outcome (in the assay with Punta Toro virus; in the assay with Vaccinia virus; in assay [2]; in the assay on Coxsackievirus B4 [3]; in assay [4]; with Human respirovirus 3) was inactive. The outcome (in the assay on Sindbis virus; in [6]; in the assay on Human alphaherpesvirus 1; in the assay with Coxsackievirus B4 [7]; with Human alphaherpesvirus 2; in assay [8]) was inactive. Moreover, the IC50 came to 1.6 µM in the assay on HeLa [9]; 0.0075 µM in the assay with L1210 [10]; 0.014 µM with FM3A; 0.014 µM with L1210 [5]; 0.017 µM in the assay with HeLa [11]; 0.016 µM in the assay with HeLa [12]. In addition, the IC50 with L1210 [13] turned out to be 0.72 µM; with L1210 [14], 0.026 µM; with HeLa [15], 0.022 µM; with L1210 [16], 1.2 µM.
